Measured values taken from US8138304B2, “Neural regeneration peptides and formulations thereof” (Neuren Pharmaceuticals Limited, priority 2005, dated 2012).
Where no end group is shown, it is not given here.

Assays:
[1] = tested on: primary human trophoblasts; test: Trophoblast proliferation assay (BrdU incorporation); type: cell-based
Protocol: Cell proliferation was determined by BrdU incorporation to examine the effects of NRP-5RG D6A on the proliferation of trophoblasts. EGF (0.8×10^−9 M) was used as a positive control, since studies have previously shown it plays a role in enhancing trophoblast proliferation (Maruo et al., 1992).
Initially cells were treated with NRP-5RG D6A (SEQ ID NO: 1), EGF and BrdU (0.05 μM) for 72 hrs. After the first 24 hrs, an 80% media change was carried out since BrdU is toxic over long incubation periods. Following 72 hrs of incubation, the reaction was stopped by fixation in 4% PFA. However, with this experimental design, most trophoblasts would form syncytia by the end of the 72 hrs, hindering accurate examination of the proliferative effect of NRP-5RG D6A on trophoblasts. […] This allowed analysis of proliferation of mononuclear trophoblasts.
Cell proliferation was evaluated over 24 hrs after seeding 1.3×10^5 cells/cm^2 in culture media (1% serum) treated with 0.05 μM BrdU, NRP-5RG D6A and EGF (FIG. 13).

[2] = tested on: embryonic mouse neural stem cells (NSCs); test: Haptotactic migration assay in injury conditions (activated astroglial monolayer); type: cell-based; conditions: 100 fM in lower compartment; TGFβ1 and scratch-activated astrocyte monolayer; 24 hrs
Protocol: The NRP of SEQ ID NO: 1 was tested for migration-inducing/chemoattractive activity on mouse neural stem cells in a haptotactic migration assay in injury conditions, as described below.
P1 (postnatal day 1) Wistar or Sprague Dawley rats were sacrificed by decapitation. Cortical hemispheres were removed and collected into separate tubes containing 4 ml DMEM—1 cortex per tube. The tissue was mechanically triturated. Cells were transferred into medium using a sterile pipette and filtered through a 100 um cell strainer into a 50 ml centrifuge tube. Each tube was stocked up to 50 ml with DMEM. The tubes were centrifuged for 5 mins at 350×g at 22° C. The cells were resuspended in 40 ml of DMEM+10% FBS. The cells were then seeded into a 12-well plate+5 nM ocadaic acid (to remove neurons by inducing apoptotic cell death) and incubated at 37° C./10% CO2 for 24 hrs […]. The medium+FBS was replaced after 1 day with fresh DMEM+10% FBS. The cell growth was monitored until confluency (14-18 days).
Induction of injuries to the astrocytic monolayer was accomplished using the pharmacological agent transforming growth factor β1 (TGFβ1) and simultaneous mechanical scratching of the monolayer in order to activate astrocytics. […]
Migrated stem cell number of labelled cells were analysed after 24 hrs by a fluorescence-based computerized imaging system (Discovery-1).

Substance: REGRRAAPGRAGG-NH2 (listed as Homo sapiens) [SEQ ID NO: 1, 13-mer NRP analogue]
- trophoblast proliferation compared to the control ([1]; 10^−13 M, 24 hrs, BrdU): no increase in proliferation
- increase in trophoblast proliferation ([1]; 10^−14 M, 24 hrs, BrdU): 183.3±50.2%
- trophoblast proliferation at other concentrations ([1]; any concentration other than 10^−14 M (higher concentrations, data not shown)): no proliferative effect
- more stem cells migrated than vehicle-treated controls [2]: 69.1%
